This is an account of results in US5593989A, “Tetracyclic 1,4-oxazine compounds” (Adir et Compagnie, priority 1994, dated 1997).

Assay [1] has as its system cloned human D3 receptors vs D2 receptors. The assay can be described thus: D3 vs D2 binding selectivity, cloned human receptors. As to the method:
(§1) in vitro: by the technique of binding to human and rat D2 and D3 receptors (expressed independently and in a stable manner in CHO cells);
(§2) The affinity of the compounds for human or rat D3 and D2 receptors (expressed independently and in a stable manner in CHO cells) was determined in membrane preparations using [^125 I]-iodosulpiride as radioligand (Sokoloff et al, op. cit.), raclopride (10 μM) determining the non-specific binding. The results are expressed as IC50. The selectivity is expressed by the ratio of IC50 D2 to IC50 D3.

In assay [2] the test system is cloned rat D3 receptors vs D2 receptors. The assay can be described thus: D3 vs D2 binding selectivity, cloned rat receptors. On the procedure: as §1, §2
The test system of assay [3] is D3 receptor. The assay can be described thus: Hypothermia induced in rats by 7-OH-DPAT. It counts as in vivo, male Wistar rats. To be noted: for ΔT °C.: means ± sem. On the procedure:
in vivo: by the capacity of the molecules to modulate hypothermia induced in rats by the D3 dopaminergic agonist, 7-OH-DPAT, control of the body temperature being dependent upon the post-synaptic D3 receptor (M. J. Millan, op. cit.).
The tests were carried out on male Wistar rats weighing 200-250 g, placed in individual cages with free access to food and water. The products were dissolved in distilled water to which several drops of lactic acid are added. The injections were effected in a volume of 1.0 ml/kg by the subcutaneous route. The doses are expressed in base. The rectal temperature of the rats was recorded using a digital thermal probe (Millan et al., J.P.E.T., 1993, 264, p. 1364-1376). The rats were injected with the compound or vehicle, then put back in their cages for 30 minutes. The rats were then given an injection of 7-OH-DPAT (0.16 mg/kg) and put back in their cages. Thirty minutes later, the rectal temperature was measured and the difference to basal values (ΔT° C.) was determined. The inhibitory dose (95% confidence limit) for reducing the effect of 7-OH-DPAT by 50% was calculated according to Finney's method (Statistical Method in Biological Assays, 2nd ed., Hafner Publishing, New York, 1964).

The nature of assay [4]: Forced-swimming test (Porsolt). The class given is in vivo. The conditions noted are these: for Period of immobility: means ± sem. As to the method: The procedure has been described in detail by Porsolt et al. (1978).
The experiment was carried out over two days, the test taking place on the second day. On the first day, the animal was placed for 15 minutes in a glass cylinder (30 cm×.O slashed.20 cm) filled with water, the temperature of which is maintained at 25° C. On the second day, the day of the test, the product or the solvent was administered to the animal by the subcutaneous route 30 minutes before the beginning of the test, At T0, the animal was placed in a cylinder filled with water for the 5 minutes the test lasted. The total period (expressed in seconds) of immobility of the animal was measured.
The inhibitory dose (95% confidence limit) for reducing immobility time by 50% was calculated according to Finney's method (Statistical Method in Biological Assays, 2nd ed., Hafner Publishing, New York, 1964).

Take `CCCN[C@@H]1CCc2c(OC)cccc2[C@@H]1C` [AJ 76]: in assay [1], the “selectivity for D3 receptors compared with D2 receptors, ratio of IC50 D2 to IC50 D3” value (from here on “selectivity … ratio of IC50 D2 to IC50 D3”) is given as 2.2.
`CCCN(CCC)C1CCc2ccc(O)cc2C1` (stereo not shown) [Example 7-OH-DPAT, reference compound]: the “selectivity … ratio of IC50 D2 to IC50 D3” value in assay [2] was 53. Further, in assay [3] (injection 1 vehicle, injection 2 7-OH-DPAT 0.16 mg/kg s.c.), the “ΔT °C.” value was -1.4 ± 0.1 °C.
In the case of `CCCN1CCO[C@@H]2c3cc4c(cc3CC[C@H]21)CCO4` (relative stereo) [Example 1, trans-3,4,4a,5,6,8,9,11b-octahydrofuro[2,3-b]1,4-oxazino[3,2-h]4-propyl-2H-naphthalene], the “selectivity … ratio of IC50 D2 to IC50 D3” value in assay [2] amounted to 44; in assay [1], 45. Moreover, the “inhibitory dose (ID50) for reducing the effect of 7-OH-DPAT by 50%” value in assay [3] (95% confidence limit in brackets, rats) is reported as 1.6 (0.7-3.7) mg/kg s.c. Also, the “ΔT °C.” value in assay [3] (Ex 1 0.16 mg/kg s.c., then 7-OH-DPAT 0.16 mg/kg) is -1.8 ± 0.2 °C; in assay [3] (Ex 1 0.63 mg/kg s.c., then 7-OH-DPAT 0.16 mg/kg), -1.3 ± 0.2 °C; in assay [3] (Ex 1 2.5 mg/kg s.c., then 7-OH-DPAT 0.16 mg/kg, * p < 0.05 versus vehicle/7-OH-DPAT) it was “+0.2 ± 0.2 °C”; in assay [3] (Ex 1 10.0 mg/kg s.c., then 7-OH-DPAT 0.16 mg/kg, * p < 0.05 versus vehicle/7-OH-DPAT), -0.1 ± 0.2 °C. The Period of immobility in assay [4] (dose 0.63 mg/kg s.c.) came out at 200.8 ± 17.4 s; in assay [4] (dose 1.25 mg/kg s.c.), 107.1 ± 39.7 s; in assay [4] (dose 2.5 mg/kg s.c., * p < 0.05), 63.1 ± 12.4 s; in assay [4] (dose 10.0 mg/kg s.c., * p < 0.05), 28.2 ± 18.1 s. Besides, in assay [4] (sc, 95% confidence limit in brackets, read-out: inhibitory dose (ID50) for reducing immobility time by 50%), the ED50 was found to be 1.8 mg/kg.
Consider `CCCN(CCC)[C@@H]1CCc2c(OC)cccc2[C@@H]1C` [(+)UH 232], for which the “selectivity … ratio of IC50 D2 to IC50 D3” value in assay [1] was 4.8.
